In patent US11896571B2, “Methods for increasing oral osteogenesis using lipoxin A4 (LXA4) and its analogs” (Forsyth Dental Infirmary for Children, priority 2013, dated 2024):

What was measured:
[1] = tested on: acute inflammation (PMN infiltration, pro-inflammatory cytokines); details: mouse model of acute inflammation, cited from earlier work
[2] = tested on: periodontal disease and bone loss (intrabony defects around second and fourth premolars); experiment: Minipig periodontal disease model: periodontal flap surgery with a single application, μCT and conventional radiographic imaging; assay type: in vivo, minipigs (Hanford)
Protocol: The Institutional Animal Care Committee at the Forsyth Institute and PARF, Inc reviewed and approved the animal protocol prior any study activities. Two adult (18-24 months old) female minipigs (Hanford) were purchased and acclimatized for at least 7 days before any procedures. All surgical and follow up procedures and housing throughout the study duration (about 6 months including disease induction period) were performed at an animal and surgical facility at PARF, Inc.
Anesthesia and surgical procedures were conducted as described in Hasturk H, Kantarci A, Ghattas M, Schmidt M, Giordano R, Ashman A, Diekwisch T, Van Dyke T E. The Use of Light/Chemically-Hardened Poly-Methyl-Methacrylate, Poly-Hydroxyl-Ethyl-Methacrylate and Calcium Hydroxide Graft Material in Combination with Polyanhydride around Implants in Minipigs: Part I: Immediate Stability and Function. J Periodontol. 2011 September; 82(9):1339-1352, which is incorporated by reference in its entirety herein. Briefly, minipigs were premedicated with Telazol (4-6 mg/kg IM) and xylazine (2.2 mg/kg IM) and were maintained by 3-4% isoflurane for induction and 0.5-2% isoflurane for maintenance. Each pig was anesthetized for approximately two hours during ligature placement and intraoral photographs. Endotracheal intubation was performed whenever the pig was fully anesthetized. Periodontal disease and bone loss were induced by creating intrabony defects using burs and ligatures in all four quadrants around the same teeth (second and fourth premolars) (FIG. 2A). After ligature placement, animals were fed with soft diet to stimulate plaque accumulation around ligatures for 6 weeks.
Oral examination, including digital photographs, were repeated at 2 and 4 weeks and ligatures were removed at 6 weeks. The sites were left untreated for about 38 days to stabilize the periodontal disease and bone loss obtained and to eliminate the self healing aspect of the bone defects. Accordingly, the defects were chronically created for the baseline treatments (FIG. 2B).
At Day 0 (baseline), the minipigs were anesthetized as described above. […]

[3] = tested on: periodontitis and inflammation-induced bone destruction; details: rabbit periodontitis; cited from earlier work

In the case of 9,12 benzo-LXA4 [9,12, benzo LXA4], the “levels of pro-inflammatory cytokines” value ([1]; in vivo) is listed as “significantly reducing”, the “polymorphonuclear leukocyte (PMN) infiltration” value ([1]; in vivo) is listed as “significantly reducing” and the anti-inflammatory properties [1] is listed as “potent anti-inflammatory properties”. For the same compound, the “number of applications after which oral osteogenesis effects were observed” value ([2]; applied to debrided chronic periodontal lesion at periodontal flap surgery) was “observed after only a single application”, the “bone regeneration by conventional radiographic imaging of teeth” value ([2]; surgery plus 9,12 benzo LXA4 vs surgery alone (FIG. 3)) was “regenerated bone to essentially pre-disease levels” and the “bone osteogenesis by micro-computed tomography (μCT) imaging of teeth” value ([2]; surgery plus 9,12 benzo LXA4 vs surgery alone, 0.1-1 μM, light gel, applied at flap surgery, bone covering root notches (FIG. 3)) was “induction of bone osteogenesis following LXA4 treatment was observed”.
In the case of `CC[C@@H](O)/C=C/C=C\C[C@@H](O)/C=C/C=C/C=C\[C@@H](O)CCCC(=O)O` [resolvin E1 (RVE1), resolvin E1], the bone loss [3] is listed as “protects from bone loss”, the inflammation [3] is listed as “reduces inflammation” and the tissue regeneration [3] is listed as “stimulates tissue regeneration”.
